Test results taken from US4002674A (priority 1974, dated 1977).
Where a name gives a salt, the structure may show the parent alone.

Tests used:
[1] = test system: Newcastle disease virus (NDV); assay: microbe, parasite or virus in culture; type: cell-based, Newcastle disease virus; chick embryo tissue culture; conditions: for inhibition at 4 µg/mL / inhibition at 8 µg/mL / inhibition at 16 µg/mL: avian paramyxovirus 1, in Gallus gallus, 48 h, read-out: % Inhibition of NDV Multiplications
[2] = antiviral activity in vivo; conditions: no test details given

Row | SMILES | inhibition at 4 µg/mL [1] [%] | inhibition at 8 µg/mL [1] [%] | inhibition at 16 µg/mL [1] [%] | antiviral activity compared with amantadine hydrochloride ([1]; in vitro, NDV, versus amantadine hydrochloride) | virus replication in the tissue culture ([1]; tissue culture containing above 4 μg/ml) | antiviral activity in vivo [2]
1 | NC12CC3CC(CC(C3)C1)C2 [Amantadine . HCl, amantadine hydrochloride, reference compound] | 0 | 0 | 0 | – | – | –
2 | COC(=O)C12CCCC3CC(CCC31)C2 (stereo not drawn) [VI, Methyl 4-homoisotwistane-3-carboxylate] | 0 | 91.2 | 99.4 | extremely superior | almost completely inhibited | potent antiviral activity in vivo
